Measurements from ChEMBL document CHEMBL2424566, “Preparation of betulinic acid derivatives by chemical and biotransformation methods and determination of cytotoxicity against selected cancer cell lines” (Eur J Med Chem, 2013).
Active and inactive are the calls of the source. No cut-off for these calls is given here.

What was measured:
[1] = system: A549; experiment: Cytotoxicity against human A549 cells assessed as cell viability after 96 hrs by SRB assay; type: functional, cell-based; conditions: A549, 96 h
[2] = system: MCF7; experiment: Cytotoxicity against human MCF7 cells assessed as cell viability after 96 hrs by SRB assay; type: functional, cell-based; conditions: MCF7, 96 h
[3] = Cytotoxicity against human 518A2 cells assessed as cell viability after 96 hrs by SRB assay; type: functional, cell-based; conditions: 518A2, 96 h
[4] = system: 8505C; experiment: Cytotoxicity against human 8505C cells assessed as cell viability after 96 hrs by SRB assay; type: functional, cell-based
[5] = system: A2780; experiment: Cytotoxicity against human A2780 cells assessed as cell viability after 96 hrs by SRB assay; type: functional, cell-based; conditions: A2780, 96 h
[6] = system: A549; experiment: Induction of apoptosis in human A549 cells assessed as early apoptosis and secondary necrosis at IC80 after 48 hrs by annexin V-FITC staining-based flow cytometric analysis relative to control; type: functional
[7] = system: A549; experiment: Induction of apoptosis in human A549 cells assessed as early apoptosis and secondary necrosis at IC80 after 24 hrs by annexin V-FITC staining-based flow cytometric analysis relative to control; type: functional
[8] = system: A549; experiment: Induction of apoptosis in human A549 cells assessed as apoptotic bodies at IC80 after 24 hrs by acridine orange/ethidium bromide staining-based fluorescence microscopic analysis; type: functional, cell-based
[9] = system: A549; experiment: Induction of apoptosis in human A549 cells assessed as membrane blebbing at IC80 after 24 hrs by acridine orange/ethidium bromide staining-based fluorescence microscopic analysis; type: functional, cell-based
[10] = system: A549; experiment: Induction of apoptosis in human A549 cells assessed as DNA fragmentation at IC80 after 24 hrs by acridine orange/ethidium bromide staining-based fluorescence microscopic analysis; type: functional, cell-based
[11] = system: A549; experiment: Induction of apoptosis in human A549 cells assessed as chromatin condensation at IC80 after 24 hrs by acridine orange/ethidium bromide staining-based fluorescence microscopic analysis; type: functional, cell-based
[12] = system: A549; experiment: Cell cycle arrest in human A549 cells assessed as accumulation at G2/M phase at IC80 by propidium iodide staining-based flow cytometric analysis; type: functional; conditions: TDE = time-dependent effect
[13] = system: A549; experiment: Cell cycle arrest in human A549 cells assessed as accumulation at S phase at IC80 by propidium iodide staining-based flow cytometric analysis; type: functional; conditions: TDE = time-dependent effect
[14] = system: A549; experiment: Cell cycle arrest in human A549 cells assessed as accumulation at G0/G1 phase at IC80 by propidium iodide staining-based flow cytometric analysis; type: functional; conditions: TDE = time-dependent effect
[15] = system: A549; experiment: Cell cycle arrest in human A549 cells assessed as accumulation at subG1 phase at IC80 by propidium iodide staining-based flow cytometric analysis; type: functional; conditions: TDE = time-dependent effect
[16] = system: A549; experiment: Cell cycle arrest in human A549 cells assessed as accumulation at G2/M phase at IC80 after 48 hrs by propidium iodide staining-based flow cytometric analysis (26 +/- 1.1%); type: functional
[17] = system: A549; experiment: Cell cycle arrest in human A549 cells assessed as accumulation at S phase at IC80 after 48 hrs by propidium iodide staining-based flow cytometric analysis (19.1 +/- 1.05%); type: functional
[18] = system: A549; experiment: Cell cycle arrest in human A549 cells assessed as accumulation at G0/G1 phase at IC80 after 48 hrs by propidium iodide staining-based flow cytometric analysis (48.5 +/- 1.82%); type: functional
[19] = system: A549; experiment: Cell cycle arrest in human A549 cells assessed as accumulation at subG1 phase at IC80 after 48 hrs by propidium iodide staining-based flow cytometric analysis (3.23 +/- 0.25%); type: functional
[20] = system: A549; experiment: Cell cycle arrest in human A549 cells assessed as accumulation at G2/M phase at IC80 after 24 hrs by propidium iodide staining-based flow cytometric analysis (24.9 +/- 1.46%); type: functional
[21] = system: A549; experiment: Cell cycle arrest in human A549 cells assessed as accumulation at S phase at IC80 after 24 hrs by propidium iodide staining-based flow cytometric analysis (20.2 +/- 0.81%); type: functional
[22] = system: A549; experiment: Cell cycle arrest in human A549 cells assessed as accumulation at G0/G1 phase at IC80 after 24 hrs by propidium iodide staining-based flow cytometric analysis (49.5 +/- 2.51%); type: functional
[23] = system: A549; experiment: Cell cycle arrest in human A549 cells assessed as accumulation at subG1 phase at IC80 after 24 hrs by propidium iodide staining-based flow cytometric analysis (2.73 +/- 0.49%); type: functional
[24] = Cytotoxicity against human CCD-18Co cells assessed as cell viability after 96 hrs by SRB assay; type: cell-based
[25] = system: MCF7; experiment: Selectivity index, ratio of IC50 for human CCD-18Co cells to IC50 for human MCF7 cells; type: functional
[26] = Selectivity index, ratio of IC50 for human CCD-18Co cells to IC50 for human 518A2 cells; type: functional
[27] = system: A2780; experiment: Selectivity index, ratio of IC50 for human CCD-18Co cells to IC50 for human A2780 cells; type: functional
[28] = system: A549; experiment: Selectivity index, ratio of IC50 for human CCD-18Co cells to IC50 for human A549 cells; type: functional
[29] = Selectivity index, ratio of IC50 for human CCD-18Co cells to IC50 for human 8505C cells; type: functional, 8505C;CCD-18Co
[30] = system: A549; experiment: Induction of apoptosis in human A549 cells assessed as occurrence of typical DNA ladders at IC80 after 72 hrs by agarose gel electrophoresis; type: functional, cell-based

| SMILES | IC50 [1] [µM] | IC50 [2] [µM] | IC50 [3] [µM] | IC50 [4] [µM] | IC50 [5] [µM] | Activity [8] | Activity [9] | Activity [10] | Activity [11] | IC50 [24] [µM] | other results |
| --- | --- | --- | --- | --- | --- | --- | --- | --- | --- | --- | --- |
| C=C(C)[C@@H]1CC[C@]2(C(=O)OC)CC[C@]3(C)[C@H](CC[C@@H]4[C@@]5(C)CC[C@H](O)C(C)(C)[C@@H]5CC[C@]43C)[C@@H]12 [METHYL BETULINATE] | 17.2 | 16.9 | 16.9 | 17.2 | 16.3 |  |  |  |  |  |  |
| C[C@H](C=O)[C@@H]1CC[C@]2(C(=O)O)CC[C@]3(C)[C@H](CC[C@@H]4[C@@]5(C)CC/C(=N\Nc6ccc([N+](=O)[O-])cc6[N+](=O)[O-])C(C)(C)[C@@H]5CC[C@]43C)[C@@H]12 | 2 | 2.41 | 1.76 | 2.17 | 1.81 |  |  |  |  |  |  |
| CC(=O)[C@@H]1CC[C@]2(C(=O)O)CC[C@]3(C)[C@H](CC[C@@H]4[C@@]5(C)CC[C@H](O)C(C)(C)[C@@H]5CC[C@]43C)[C@@H]12 [PLATANIC ACID] | 75.4 | 63.2 | 97.5 | 93.6 | 68 |  |  |  |  |  |  |
| C=C(C)[C@@H]1CC[C@]2(C(=O)O)CC[C@]3(C)[C@H](CC[C@@H]4[C@@]5(C)CC[C@H](O)C(C)(C)[C@@H]5CC[C@]43C)[C@@H]12 [BETULINIC ACID] | 13.3 | 14 | 14.8 | 12.6 | 8.75 | Active | Active | Active | Active | 43.6 | Activity [6]: >50%; Activity [7]: 32%; Activity [12]: tde; Activity [13]: tde; Activity [14]: tde; Activity [15]: tde; Activity [16]: 0.17%; Activity [17]: 0.33%; Activity [18]: 0.96%; Activity [19]: 98.5%; Activity [20]: 20.1%; Activity [21]: 20.1%; Activity [22]: 36.7%; Activity [23]: 18.8% |
| C=C(C)[C@@H]1CC[C@]2(C(=O)O)CC[C@]3(C)[C@H](CC[C@@H]4[C@@]5(C)CC/C(=N\Nc6ccc([N+](=O)[O-])cc6[N+](=O)[O-])C(C)(C)[C@@H]5CC[C@]43C)[C@@H]12 | 21.4 | 8.17 | 13.5 | 25.9 | 6.22 | Active | Active | Active | Active | 18.1 | Ratio IC50 [25]: 1; Ratio IC50 [26]: 1; Ratio IC50 [27]: 1 |
| C[C@@H](C=O)[C@@H]1CC[C@]2(C(=O)O)CC[C@]3(C)[C@H](CC[C@@H]4[C@@]5(C)CCC(O)C(C)(C)[C@@H]5CC[C@]43C)[C@@H]12 (stereo partly specified) | 46.9 | 44.4 | 52.9 | 55.2 | 50.3 |  |  |  |  |  |  |
| C=C(C)[C@@H]1CC[C@]2(C(=O)OCc3ccccc3)CC[C@]3(C)[C@H](CC[C@@H]4[C@@]5(C)CC/C(=N\Nc6ccc([N+](=O)[O-])cc6[N+](=O)[O-])C(C)(C)[C@@H]5CC[C@]43C)[C@@H]12 | > 100 | > 100 | > 100 | > 100 | 66.7 |  |  |  |  |  |  |
| C/C(=N/O)[C@@H]1CC[C@]2(C(=O)O)CC[C@]3(C)[C@H](CC[C@@H]4[C@@]5(C)CC[C@H](O)C(C)(C)[C@@H]5CC[C@]43C)[C@@H]12 | 53.7 | 52.2 | 63.2 | 55.9 | 54.4 |  |  |  |  |  |  |
| C/C(=N\Nc1ccc([N+](=O)[O-])cc1[N+](=O)[O-])[C@@H]1CC[C@]2(C(=O)O)CC[C@]3(C)[C@H](CC[C@@H]4[C@@]5(C)CC/C(=N\Nc6ccc([N+](=O)[O-])cc6[N+](=O)[O-])C(C)(C)[C@@H]5CC[C@]43C)[C@@H]12 | > 100 | 60.2 | > 100 | > 100 | 53.8 |  |  |  |  |  |  |
| C/C(=N\Nc1ccc([N+](=O)[O-])cc1[N+](=O)[O-])[C@@H]1CC[C@]2(C(=O)O)CC[C@]3(C)[C@H](CC[C@@H]4[C@@]5(C)CC[C@H](O)C(C)(C)[C@@H]5CC[C@]43C)[C@@H]12 | 7.62 | 6.84 | 9.09 | 8.72 | 11.3 | Active | Active | Active | Active | 56.7 | Ratio IC50 [28]: 5; Ratio IC50 [25]: 5; Ratio IC50 [26]: 5; Ratio IC50 [29]: 5; Ratio IC50 [27]: 5 |
| C=C(C)[C@@H]1CC[C@]2(C(=O)OC)CC[C@]3(C)[C@H](CC[C@@H]4[C@@]5(C)CC/C(=N\Nc6ccc([N+](=O)[O-])cc6[N+](=O)[O-])C(C)(C)[C@@H]5CC[C@]43C)[C@@H]12 | > 100 | > 100 | > 100 | > 100 | > 100 |  |  |  |  |  |  |
| CC(=O)[C@@H]1CC[C@]2(C(=O)O)CC[C@]3(C)[C@H](CC[C@@H]4[C@@]5(C)CC/C(=N\Nc6ccc([N+](=O)[O-])cc6[N+](=O)[O-])C(C)(C)[C@@H]5CC[C@]43C)[C@@H]12 | 12.1 | 7.52 | 14.6 | 16.9 | 9.1 | Active | Active | Active | Active | 43.5 |  |
| C[C@@H](C=O)[C@@H]1CC[C@]2(C(=O)O)CC[C@]3(C)[C@H](CC[C@@H]4[C@@]5(C)CC/C(=N\Nc6ccc([N+](=O)[O-])cc6[N+](=O)[O-])C(C)(C)[C@@H]5CC[C@]43C)[C@@H]12 | 1.79 | 2.51 | 1.91 | 2.44 | 1.76 | Active | Active | Active | Active | 8.3 | Activity [6]: 8%; Activity [7]: 12%; Activity [30]: Active; Activity [12]: tde; Activity [13]: tde; Activity [14]: tde; Activity [15]: tde; Activity [16]: 15.9%; Activity [17]: 14.6%; Activity [18]: 49.7%; Activity [19]: 18.3%; Activity [20]: 13.9%; Activity [21]: 14.8%; Activity [22]: 60.9%; Activity [23]: 8.77%; Ratio IC50 [28]: 3; Ratio IC50 [25]: 3; Ratio IC50 [26]: 3; Ratio IC50 [29]: 3; Ratio IC50 [27]: 3 |
| C=C(C)[C@@H]1CC[C@]2(C(=O)OC)CC[C@]3(C)[C@H](CC[C@@H]4[C@@]5(C)CCC(=O)C(C)(C)[C@@H]5CC[C@]43C)[C@@H]12 [METHYL BETULONATE] | > 100 | 98.1 | 68 | > 100 | 36.2 |  |  |  |  |  |  |
| C=C(C)[C@@H]1CC[C@]2(C(=O)O)CC[C@]3(C)[C@H](CC[C@@H]4[C@@]5(C)CCC(=O)C(C)(C)[C@@H]5CC[C@]43C)[C@@H]12 [BETUNOLIC ACID] | 10.4 |  | 12.9 | 14 | 5.97 |  |  |  |  |  |  |
| CC(=O)[C@@H]1CC[C@]2(C(=O)O)CC[C@]3(C)[C@H](CC[C@@H]4[C@@]5(C)CCC(=O)C(C)(C)[C@@H]5CC[C@]43C)[C@@H]12 | 59.1 | 47.1 | 43.5 | 64.1 | 16.1 |  |  |  |  |  |  |
